Reference: ChEMBL document CHEMBL2375251, “Anticancer activity of novel hybrid molecules containing 5-benzylidene thiazolidine-2,4-dione” (Eur J Med Chem, 2013)
Calls of active or inactive are those of the source.

Key:
MOLT-3 [1] = assay: Induction of apoptosis in human MOLT3 cells assessed as caspase 3/7-mediated DEVD-pNA cleavage at 1 uM after 6 hrs by colorimetric assay relative to control; type: functional
U-937 [2] = assay: Induction of apoptosis in human U937 cells assessed as caspase 3/7-mediated DEVD-pNA cleavage at 1 uM after 6 hrs by colorimetric assay relative to control; type: functional
HL-60 [3] = assay: Induction of apoptosis in human HL60 cells assessed as caspase 3/7-mediated DEVD-pNA cleavage at 1 uM after 6 hrs by colorimetric assay relative to control; type: functional
MOLT-3 [4] = assay: Induction of apoptosis in human MOLT3 cells assessed as caspase9-mediated LEHD-pNA cleavage at 1 uM after 6 hrs by colorimetric assay; type: functional, cell-based
U-937 [5] = assay: Induction of apoptosis in human U937 cells assessed as caspase9-mediated LEHD-pNA cleavage at 1 uM after 6 hrs by colorimetric assay; type: functional, cell-based
HL-60 [6] = assay: Induction of apoptosis in human HL60 cells assessed as caspase9-mediated LEHD-pNA cleavage at 1 uM after 6 hrs by colorimetric assay; type: functional, cell-based
MOLT-3 [7] = assay: Induction of apoptosis in human MOLT3 cells assessed as caspase 8-mediated IETD-pNA cleavage at 1 uM after 6 hrs by colorimetric assay; type: functional, cell-based
U-937 [8] = assay: Induction of apoptosis in human U937 cells assessed as caspase 8-mediated IETD-pNA cleavage at 1 uM after 6 hrs by colorimetric assay; type: functional, cell-based
MOLT-3 [9] = assay: Induction of apoptosis in human MOLT3 cells assessed as caspase 3/7-mediated DEVD-pNA cleavage at 1 uM after 6 hrs by colorimetric assay; type: functional, cell-based
HL-60 [10] = assay: Induction of apoptosis in human HL60 cells assessed as caspase 8-mediated IETD-pNA cleavage at 1 uM after 6 hrs by colorimetric assay; type: functional, cell-based
U-937 [11] = assay: Induction of apoptosis in human U937 cells assessed as caspase 3/7-mediated DEVD-pNA cleavage at 1 uM after 6 hrs by colorimetric assay; type: functional, cell-based
HL-60 [12] = assay: Induction of apoptosis in human HL60 cells assessed as caspase 3/7-mediated DEVD-pNA cleavage at 1 uM after 6 hrs by colorimetric assay; type: functional, cell-based
MOLT-3 [13] = assay: Induction of apoptosis in human MOLT3 cells assessed as cytochrome c release at 1 uM after 6 hrs by Western blot analysis; type: functional, cell-based
U-937 [14] = assay: Induction of apoptosis in human U937 cells assessed as cytochrome c release at 1 uM after 6 hrs by Western blot analysis; type: functional, cell-based
HL-60 [15] = assay: Induction of apoptosis in human HL60 cells assessed as cytochrome c release at 1 uM after 6 hrs by Western blot analysis; type: functional, cell-based
MOLT-3 [16] = assay: Induction of apoptosis in human MOLT3 cells assessed as caspase-3-mediated PARP hydrolysis at 1 uM after 6 hrs by Western blot analysis; type: functional, cell-based
U-937 [17] = assay: Induction of apoptosis in human U937 cells assessed as caspase-3-mediated PARP hydrolysis at 1 uM after 6 hrs by Western blot analysis; type: functional, cell-based
HL-60 [18] = assay: Induction of apoptosis in human HL60 cells assessed as caspase-3-mediated PARP hydrolysis at 1 uM after 6 hrs by Western blot analysis; type: functional, cell-based
MOLT-3 [19] = assay: Induction of apoptosis in human MOLT3 cells assessed as procaspase-9 activation at 1 uM after 6 hrs by Western blot analysis; type: functional, cell-based
U-937 [20] = assay: Induction of apoptosis in human U937 cells assessed as procaspase-9 activation at 1 uM after 6 hrs by Western blot analysis; type: functional, cell-based
HL-60 [21] = assay: Induction of apoptosis in human HL60 cells assessed as procaspase-9 activation at 1 uM after 6 hrs by Western blot analysis; type: functional, cell-based
MOLT-3 [22] = assay: Induction of apoptosis in human MOLT3 cells assessed as procaspase-8 activation at 1 uM after 6 hrs by Western blot analysis; type: functional, cell-based
U-937 [23] = assay: Induction of apoptosis in human U937 cells assessed as procaspase-8 activation at 1 uM after 6 hrs by Western blot analysis; type: functional, cell-based
HL-60 [24] = assay: Induction of apoptosis in human HL60 cells assessed as procaspase-8 activation at 1 uM after 6 hrs by Western blot analysis; type: functional, cell-based
MOLT-3 [25] = assay: Induction of apoptosis in human MOLT3 cells assessed as procaspase-7 activation at 1 uM after 6 hrs by Western blot analysis; type: functional, cell-based
U-937 [26] = assay: Induction of apoptosis in human U937 cells assessed as procaspase-6 activation at 1 uM after 6 hrs by Western blot analysis; type: functional, cell-based
HL-60 [27] = assay: Induction of apoptosis in human HL60 cells assessed as procaspase-6 activation at 1 uM after 6 hrs by Western blot analysis; type: functional, cell-based
MOLT-3 [28] = assay: Induction of apoptosis in human MOLT3 cells assessed as procaspase-3 activation at 1 uM after 6 hrs by Western blot analysis; type: functional, cell-based
U-937 [29] = assay: Induction of apoptosis in human U937 cells assessed as procaspase-3 activation at 1 uM after 6 hrs by Western blot analysis; type: functional, cell-based
HL-60 [30] = assay: Induction of apoptosis in human HL60 cells assessed as procaspase-3 activation at 1 uM after 6 hrs by Western blot analysis; type: functional, cell-based
HL-60 [31] = assay: Induction of apoptosis in human HL60 cells assessed as hypodiploid DNA content at 3 uM after 6 hrs by propidium iodide staining-based flow cytometry relative to control; type: functional
MOLT-3 [32] = assay: Induction of apoptosis in human MOLT3 cells assessed as chromatin hydrolysis at 1 uM after 6 hrs by agarose gel electrophoresis; type: functional, cell-based
U-937 [33] = assay: Induction of apoptosis in human U937 cells assessed as chromatin hydrolysis at 1 uM after 6 hrs by agarose gel electrophoresis; type: functional, cell-based
HL-60 [34] = assay: Induction of apoptosis in human HL60 cells assessed as chromatin hydrolysis at 1 uM after 6 hrs by agarose gel electrophoresis; type: functional, cell-based
U-937 [35] = assay: Induction of apoptosis in human U937 cells assessed as appearance of apoptotic bodies at 1 uM after 6 hrs by Hoechst 33258 staining based fluorescence microscopy; type: functional, cell-based
U-937 [36] = assay: Induction of apoptosis in human U937 cells assessed as chromatin condensation at 1 uM after 6 hrs by Hoechst 33258 staining based fluorescence microscopy; type: functional, cell-based
HL-60 [37] = assay: Induction of apoptosis in human HL60 cells assessed as appearance of apoptotic bodies at 1 uM after 6 hrs by Hoechst 33258 staining based fluorescence microscopy; type: functional, cell-based
HL-60 [38] = assay: Induction of apoptosis in human HL60 cells assessed as chromatin condensation at 1 uM after 6 hrs by Hoechst 33258 staining based fluorescence microscopy; type: functional, cell-based
MOLT-3 [39] = assay: Cytotoxicity against human MOLT3 cells after 4 hrs by MTT assay; type: functional, cell-based; conditions: for IC50: MOLT-3, 4 h
U-937 [40] = assay: Cytotoxicity against human U937 cells after 4 hrs by MTT assay; type: functional, cell-based; conditions: for IC50: U-937, 4 h
HL-60 [41] = assay: Cytotoxicity against human HL60 cells after 4 hrs by MTT assay; type: functional, cell-based; conditions: for IC50: HL-60, 4 h
HeLa = assay: Cytotoxicity against human HeLa cells after 4 days by Coulter counter analysis; type: functional, cell-based; conditions: 96 h
CCRF-CEM = assay: Cytotoxicity against human CEM cells after 3 days by Coulter counter analysis; type: functional, cell-based; conditions: 72 h
FM3A = assay: Cytotoxicity against mouse FM3A cells after 2 days by Coulter counter analysis; type: functional, cell-based; conditions: 48 h
L1210 = assay: Cytotoxicity against mouse L1210 cells after 2 days by Coulter counter analysis; type: functional, cell-based; conditions: L1210, 48 h
U-937 [42] = assay: Induction of apoptosis in human U937 cells assessed as procaspase-7 activation at 1 uM after 6 hrs by Western blot analysis; type: functional, cell-based
HL-60 [43] = assay: Induction of apoptosis in human HL60 cells assessed as procaspase-7 activation at 1 uM after 6 hrs by Western blot analysis; type: functional, cell-based
MOLT-3 [44] = assay: Induction of apoptosis in human MOLT3 cells assessed as procaspase-6 activation at 1 uM after 6 hrs by Western blot analysis; type: functional, cell-based
U-937 [45] = assay: Induction of apoptosis in human U937 cells assessed as hypodiploid DNA content at 3 uM after 6 hrs by propidium iodide staining-based flow cytometry relative to control; type: functional

C=C(Br)C(=O)Nc1cccc(/C=C2\SC(=O)N(Cc3ccc(C(F)(F)F)cc3)C2=O)c1
23: fold change (FC) (HL-60 [31])
>10: fold change (FC) (U-937 [2])
>5: fold change (FC) (HL-60 [3])
>2: fold change (FC) (MOLT-3 [1])
16: fold change (FC) (U-937 [45])
710 nM: IC50 (MOLT-3 [39])
inactive: Activity (MOLT-3 [32])
450 nM: IC50 (HL-60 [41])
500 nM: IC50 (U-937 [40])
720 nM: IC50 (L1210)
920 nM: IC50 (CCRF-CEM)
active: Activity (MOLT-3 [4]) | Activity (U-937 [5]) | Activity (HL-60 [6]) | Activity (MOLT-3 [7]) | Activity (U-937 [8]) | Activity (MOLT-3 [9]) | Activity (HL-60 [10]) | Activity (U-937 [11]) | Activity (HL-60 [12]) | Activity (MOLT-3 [13]) | Activity (U-937 [14]) | Activity (HL-60 [15]) | Activity (MOLT-3 [16]) | Activity (U-937 [17]) | Activity (HL-60 [18]) | Activity (MOLT-3 [19]) | Activity (U-937 [20]) | Activity (HL-60 [21]) | Activity (MOLT-3 [22]) | Activity (U-937 [23]) | Activity (HL-60 [24]) | Activity (MOLT-3 [25]) | Activity (U-937 [26]) | Activity (HL-60 [27]) | Activity (MOLT-3 [28]) | Activity (U-937 [29]) | Activity (HL-60 [30]) | Activity (U-937 [33]) | Activity (HL-60 [34]) | Activity (U-937 [35]) | Activity (U-937 [36]) | Activity (HL-60 [37]) | Activity (HL-60 [38]) | Activity (MOLT-3 [39]) Dose-dependent effect | Activity (U-937 [40]) Dose-dependent effect | Activity (HL-60 [41]) Dose-dependent effect | Activity (U-937 [42]) | Activity (HL-60 [43]) | Activity (MOLT-3 [44])
870 nM: IC50 (FM3A)
820 nM: IC50 (HeLa)

C=C(Br)C(=O)Nc1cccc(/C=C2\SC(=O)N(Cc3ccccc3)C2=O)c1
620 nM: IC50 (U-937 [40])
810 nM: IC50 (FM3A)
active: Activity (MOLT-3 [4]) | Activity (U-937 [5]) | Activity (HL-60 [6]) | Activity (MOLT-3 [7]) | Activity (U-937 [8]) | Activity (MOLT-3 [9]) | Activity (HL-60 [10]) | Activity (U-937 [11]) | Activity (HL-60 [12]) | Activity (MOLT-3 [13]) | Activity (U-937 [14]) | Activity (HL-60 [15]) | Activity (MOLT-3 [16]) | Activity (U-937 [17]) | Activity (HL-60 [18]) | Activity (MOLT-3 [19]) | Activity (U-937 [20]) | Activity (HL-60 [21]) | Activity (MOLT-3 [22]) | Activity (U-937 [23]) | Activity (HL-60 [24]) | Activity (MOLT-3 [25]) | Activity (U-937 [26]) | Activity (HL-60 [27]) | Activity (MOLT-3 [28]) | Activity (U-937 [29]) | Activity (HL-60 [30]) | Activity (U-937 [33]) | Activity (HL-60 [34]) | Activity (U-937 [35]) | Activity (U-937 [36]) | Activity (HL-60 [37]) | Activity (HL-60 [38]) | Activity (MOLT-3 [39]) Dose-dependent effect | Activity (U-937 [40]) Dose-dependent effect | Activity (HL-60 [41]) Dose-dependent effect | Activity (U-937 [42]) | Activity (HL-60 [43]) | Activity (MOLT-3 [44])
690 nM: IC50 (HL-60 [41])
12: fold change (FC) (HL-60 [31])
6: fold change (FC) (U-937 [45])
>5: fold change (FC) (HL-60 [3])
380 nM: IC50 (L1210)
inactive: Activity (MOLT-3 [32])
>10: fold change (FC) (U-937 [2])
510 nM: IC50 (CCRF-CEM)
600 nM: IC50 (MOLT-3 [39])
>2: fold change (FC) (MOLT-3 [1])
1400 nM: IC50 (HeLa)
